“And” between values parts separate entries of the source, which are not always exact repeats. Equal values may be shown once.
Assays:
human recombinant PAD1 = target: T1, human recombinant PAD1 (Homo sapiens, UniProt Q9ULC6); assay: PAD1 selectivity biochemical assay measuring ammonia release; conditions: 10 semi-log concentrations, highest concentration tested 30 µM
T1 construct: purchased Cayman Chemicals 10784
T1 sequence (Q9ULC6 1-663): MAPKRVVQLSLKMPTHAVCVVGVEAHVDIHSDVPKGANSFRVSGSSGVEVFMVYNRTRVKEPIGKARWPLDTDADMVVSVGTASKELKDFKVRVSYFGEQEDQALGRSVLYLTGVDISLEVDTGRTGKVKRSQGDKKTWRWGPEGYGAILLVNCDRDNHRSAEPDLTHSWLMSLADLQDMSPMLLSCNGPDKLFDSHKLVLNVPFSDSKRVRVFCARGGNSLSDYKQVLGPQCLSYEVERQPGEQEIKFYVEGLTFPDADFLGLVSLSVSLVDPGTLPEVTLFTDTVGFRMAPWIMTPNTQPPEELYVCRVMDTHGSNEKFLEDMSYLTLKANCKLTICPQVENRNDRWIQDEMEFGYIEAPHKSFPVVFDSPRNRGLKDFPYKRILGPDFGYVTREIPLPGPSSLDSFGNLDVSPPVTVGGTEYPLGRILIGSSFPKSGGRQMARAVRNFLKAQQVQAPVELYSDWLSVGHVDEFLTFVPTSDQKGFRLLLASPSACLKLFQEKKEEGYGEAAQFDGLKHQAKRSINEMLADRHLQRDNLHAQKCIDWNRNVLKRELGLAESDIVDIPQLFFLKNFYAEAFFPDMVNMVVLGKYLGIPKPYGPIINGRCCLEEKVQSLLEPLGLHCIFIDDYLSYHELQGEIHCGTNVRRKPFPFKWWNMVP

human recombinant PAD3 = target: T2, human recombinant PAD3 (Homo sapiens, UniProt Q9ULW8); assay: PAD3 selectivity biochemical assay measuring ammonia release; conditions: 10 semi-log concentrations, highest concentration tested 30 µM
T2 construct: purchased Cayman Chemicals 10786
T2 sequence (Q9ULW8 1-664): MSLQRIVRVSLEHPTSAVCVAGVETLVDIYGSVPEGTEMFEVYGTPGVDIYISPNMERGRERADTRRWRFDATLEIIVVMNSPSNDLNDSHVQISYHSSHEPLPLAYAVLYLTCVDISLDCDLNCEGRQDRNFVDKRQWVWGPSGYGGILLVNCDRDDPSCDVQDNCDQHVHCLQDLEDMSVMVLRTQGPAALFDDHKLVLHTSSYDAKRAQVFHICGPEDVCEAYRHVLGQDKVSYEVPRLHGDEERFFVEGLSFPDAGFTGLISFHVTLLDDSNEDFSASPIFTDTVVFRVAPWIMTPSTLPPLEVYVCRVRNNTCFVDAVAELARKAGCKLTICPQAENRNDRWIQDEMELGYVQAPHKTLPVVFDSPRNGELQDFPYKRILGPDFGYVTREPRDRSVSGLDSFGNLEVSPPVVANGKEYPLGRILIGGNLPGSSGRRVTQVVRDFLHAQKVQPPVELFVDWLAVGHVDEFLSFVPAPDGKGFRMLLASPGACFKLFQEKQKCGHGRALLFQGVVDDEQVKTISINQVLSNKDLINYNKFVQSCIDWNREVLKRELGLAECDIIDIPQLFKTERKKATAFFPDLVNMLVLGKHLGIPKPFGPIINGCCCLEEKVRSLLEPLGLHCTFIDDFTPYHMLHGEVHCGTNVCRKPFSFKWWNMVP

[1] = target: T3, recombinant human PAD4 enzyme (Homo sapiens, UniProt Q9UM07); assay: PAD4 biochemical assay measuring ammonia release; conditions: 10 semi-log concentrations, figure box prints no unit, x axis μM, read-out: IC50, inhibition of PAD4 enzymatic activity
T3 construct: Full-length recombinant human PAD4 used in the assay was produced at Jubilant Biosys Ltd, Bangalore; made in house
Experimental: This assay relies on the ammonia produced when peptidylarginine deiminase 4 (PAD4) deiminates Nα-Benzoyl-L-arginine ethyl ester (BAEE) (Sigma, Catalog No: B4500), a non-natural substrate. The ammonia reacts with a detector i.e., ortho-phthaladehyde (OPA) (Sigma, Catalog No: P0657) resulting in a fluorescent product that is then analyzed at an excitation wavelength of 410 nm and an emission wavelength of 470 nm[33]. Full-length recombinant human PAD4 used in the assay was produced at Jubilant Biosys Ltd, Bangalore. PAD4 enzyme (125 nM) was diluted in Assay Buffer (100 mM HEPES, 50 mM NaCl, 2 mM DTT, 0.6 mg/ml BSA, pH7) and incubated with different concentrations of JBI-589 for 60 min at room temperature and then the reaction was initiated by the addition of substrate (1.5 mM BAEE (sigma) in 100 mM HEPES, 50 mM NaCl, 500 μM CaCl2, 2 mM DTT, pH7) then incubated with 1.5 mM BAEE substrate (Sigma) for another 60 min. The reaction was then stopped by the addition of detection buffer containing 50 mM EDTA, 2.6 mM ortho-phthalaldehyde and 2 mM DTT and fluorescence was measured. IC50 values were determined by sigmoidal dose–response curve (variable slope) using GraphPad Prism 5 software. […]

[2] = Microsomal stability, RLM; type: in vitro ADME, rat; conditions: 1 µM, liver microsomes 0.5 mg/mL; one range given for HLM/MLM/DLM/RLM
Experimental: Microsomal stability: Liver microsomes (0.5 mg/mL) from different species were incubated with JBI-589 (1 µM) with or without NADPH (1 mM) at 37 °C for 30 min in potassium phosphate buffer (pH 7.4) and then reaction was stopped with quenching solution (0.5% Formic acid in internal standard (IS) containing ACN). Resulting samples were centrifuged and supernatant was taken for LC–MS/MS analysis. Percent metabolism was calculated as follows: % Metabolized: [1 − (test area ratio/control area ratio)] *100.

T3 sequence (Q9UM07 whole entry): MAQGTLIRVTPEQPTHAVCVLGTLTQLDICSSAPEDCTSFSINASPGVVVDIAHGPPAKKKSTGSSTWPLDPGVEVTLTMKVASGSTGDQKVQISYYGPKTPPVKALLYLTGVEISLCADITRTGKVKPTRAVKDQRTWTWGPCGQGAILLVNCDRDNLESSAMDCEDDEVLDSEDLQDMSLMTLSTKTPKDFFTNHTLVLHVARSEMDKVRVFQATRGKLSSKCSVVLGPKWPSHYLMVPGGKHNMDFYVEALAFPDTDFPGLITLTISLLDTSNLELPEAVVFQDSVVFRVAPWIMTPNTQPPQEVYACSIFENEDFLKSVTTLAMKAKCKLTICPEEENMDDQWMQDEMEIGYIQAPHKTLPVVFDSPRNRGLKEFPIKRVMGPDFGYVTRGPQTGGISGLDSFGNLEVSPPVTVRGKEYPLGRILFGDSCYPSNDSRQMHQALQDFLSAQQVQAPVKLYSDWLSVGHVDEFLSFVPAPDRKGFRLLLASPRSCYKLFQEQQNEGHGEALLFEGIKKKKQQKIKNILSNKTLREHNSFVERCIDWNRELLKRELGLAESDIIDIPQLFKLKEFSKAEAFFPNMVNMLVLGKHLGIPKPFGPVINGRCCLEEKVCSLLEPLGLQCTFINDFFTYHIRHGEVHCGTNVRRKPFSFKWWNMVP

Q: Which “inhibitory activity against PAD1” value (human recombinant PAD1) does the source give for Cc1c(-c2cc3ccccc3n2Cc2ccc(F)cc2)nc2cc(C(=O)N3CCC[C@@H](N)C3)ccn12 [JBI-589, (R)-(3-aminopiperidin-1-yl)(2-(1-(4-fluorobenzyl)-1H-indol-2-yl)-3-methylimidazo[1,2-a]pyridin-7-yl)methanone] here?
A: did not have any inhibitory activity

Q: And the “inhibitory activity against PAD3” value (human recombinant PAD3)?
A: did not have any inhibitory activity

Q: What about the IC50 [1] of the same molecule?
A: 0.122 µM and 0.123 µM

Q: What about the “RLM % metabolized @ 30 min” value [2] of the same molecule?
A: 25-50%
